Data as given in patent US20250282741A1, “NOVEL BENZOFURANYL HYDROXYPHENYL METHANONE DERIVATIVE COMPOUND OR PHARMACEUTICALLY ACCEPTABLE SALT THEREOF” (INNOVO THERAPEUTICS INC., priority 2021, published 2025).

Key:
HSP47 = HSP47 (Homo sapiens (Human), UniProt P50454); test: Evaluation of HSP47 activity (inhibition of collagen fibril formation, 340 nm); assay type: biochemical; conditions: for inhibition at 100 µM: HSP47 inhibition; for EC50: HSP47 9.45 μg/ml, collagen fibril formation, test compound 100 μM to 1 μM
HSP47, sequence (P50454 19-418, species assumed): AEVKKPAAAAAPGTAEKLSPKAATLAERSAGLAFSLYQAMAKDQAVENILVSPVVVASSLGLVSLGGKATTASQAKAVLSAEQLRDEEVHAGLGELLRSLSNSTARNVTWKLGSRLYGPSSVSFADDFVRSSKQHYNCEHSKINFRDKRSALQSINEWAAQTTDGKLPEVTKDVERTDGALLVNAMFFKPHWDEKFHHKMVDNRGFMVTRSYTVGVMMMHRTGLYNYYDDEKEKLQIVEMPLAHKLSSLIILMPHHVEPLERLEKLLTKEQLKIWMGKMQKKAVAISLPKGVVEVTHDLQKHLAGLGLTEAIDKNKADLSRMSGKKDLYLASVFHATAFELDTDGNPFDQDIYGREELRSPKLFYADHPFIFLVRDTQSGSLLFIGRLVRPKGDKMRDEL
Experimental: Fibrils were formed by adding 180 ul of phosphate-buffered saline (PBS, pH 7.4) solution to 20 ul of collagen dissolved in acidic solution (collagen solution, UK), which was measured at a wavelength of 340 nm. HSP47 (GenScript US) was added at a concentration of 9.45 μg/ml to assess HSP47 activity as the degree to which it inhibits fibril formation. Test compound was added with concentrations of 100 μM to 1 μM and the inhibitory activity of HSP47 was calculated as a percentage or EC50.

LX-2 cells = test: Sirius red assay, hepatic stellate cell fibrosis (TGF-beta treated LX-2); assay type: cell-based; conditions: Homo sapiens; for EC50: LX-2, collagen production, TGF-beta 10 ng/ml, 24 hours; for inhibition at 10 µM: LX-2 cells, collagen production
Experimental: (§1) Liver stellate LX-2 (Elabscience C H), lung epithelial A549 (ATCC US), or skin KEL FIB (ATCC, US) cells were cultured in 24-well tissue culture plates for 18 hours, followed by TGF-beta 10 ng/ml treatment, and then incubated with test compound for 24 hours. Cells were washed with PBS, fixed with Bouin's solution, and washed twice with distilled water. The fixed cells were stained with Sirius red for 2 hours to observe cellular morphological changes, and then washed with 0.01 N HCl solution. Collagen-bound Sirius red was extracted with 0.1 N NaOH solution, which was then quantified at a wavelength of 570 nm. The inhibitory efficacy of each compound on collagen production was shown as a percentage or EC50.

[1] = test system: MCP-1 (Monocyte chemoattractant protein-1) secretion; test: Inhibition of MCP-1 secretion in LX-2 cells (ELISA); assay type: cell-based; conditions: Homo sapiens, TGF-beta 10 ng/ml, 30 to 1 μM test compound, 24 hours, read-out: LX-2 cell EC50 (MCP-1 secretion)
Experimental: LX-2 cells, a hepatic stellate cell line, were cultured in 24-well tissue culture plates for 18 hours, followed by TGF-beta 10 ng/ml treatment, and then incubated with 30 to 1 μM of the test compound for 24 hours. The secreted MCP-1 protein in the cell culture medium was quantified using ELISA reagents (RnD, USA). The EC50 value was calculated from the quantitative value of MCP-1 resulting from the treatment of each test compound using prism software (Graphpad, ver 9.4 USA).

A549 cells = test: Sirius red assay, lung epithelial cell fibrosis (TGF-beta treated A549); assay type: cell-based; conditions: Homo sapiens, collagen production
Experimental: as §1

Row | Structure (SMILES) | inhibition at 100 µM (HSP47) | EC50 (LX-2 cells) | EC50 [1] | EC50 (HSP47) | inhibition at 10 µM (LX-2 cells) | inhibition at 10 µM (A549 cells) | inhibition at 30 µM (A549 cells)
1 | CCc1oc2cccc(Cl)c2c1C(=O)c1cc(Br)c(O)c(Br)c1 [Example 1, (4-chloro-2-ethylbenzofuran-3-yl)(3,5-dibromo-4-hydroxyphenyl)methanone] | 23.3% | 3 µM | 4.61 µM | – | – | – | –
2 | CCc1oc2ccc(C)cc2c1C(=O)c1cc(Br)c(O)c(Br)c1 [Example 2, (3,5-dibromo-4-hydroxyphenyl)(2-ethyl-5-methylbenzofuran-3-yl)methanone] | – | – | – | 40.8 µM | 65.1% | – | –
3 | CCc1ccc2c(C(=O)c3cc(Br)c(O)c(Br)c3)c(CC)oc2c1 [Example 3, (3,5-dibromo-4-hydroxyphenyl)(2,6-diethylbenzofuran-3-yl)methanone] | 26.3% | 1.37 µM | 2.21 µM | – | – | – | –
4 | CCc1oc2c(C)cccc2c1C(=O)c1cc(Br)c(O)c(Br)c1 [Example 4, (3,5-dibromo-4-hydroxyphenyl)(2-ethyl-7-methylbenzofuran-3-yl)methanone] | – | 5.55 µM | 8.69 µM | 73 µM | – | – | –
5 | CCc1oc2c(Cl)cccc2c1C(=O)c1cc(Br)c(O)c(Br)c1 [Example 5, (7-chloro-2-ethylbenzofuran-3-yl)(3,5-dibromo-4-hydroxyphenyl)methanone] | – | 4.73 µM | 3.56 µM | 37.8 µM | – | – | –
6 | CCc1oc2c(Br)cccc2c1C(=O)c1cc(Br)c(O)c(Br)c1 [Example 6, (7-bromo-2-ethylbenzofuran-3-yl)(3,5-dibromo-4-hydroxyphenyl)methanone] | – | 17.1 µM | 10.2 µM | 80.8 µM | – | – | –
7 | CCc1oc2c(F)cccc2c1C(=O)c1cc(Br)c(O)c(Br)c1 [Example 7, (3,5-dibromo-4-hydroxyphenyl)(2-ethyl-7-fluorobenzofuran-3-yl)methanone] | 18.1% | 10.9 µM | 2.85 µM | – | – | – | –
8 | CCc1oc2ccc(C)cc2c1C(=O)c1cc(I)c(O)c(I)c1 [Example 8, (2-ethyl-5-methylbenzofuran-3-yl)(4-hydroxy-3,5-diiodophenyl)methanone] | – | – | – | 37.1 µM | 67.9% | – | –
9 | CCc1oc2cc(C)ccc2c1C(=O)c1cc(I)c(O)c(I)c1 [Example 10, (2-ethyl-6-methylbenzofuran-3-yl)(4-hydroxy-3,5-diiodophenyl)methanone] | 41.8% | – | – | – | 128% | – | –
10 | CCc1oc2cc(Br)ccc2c1C(=O)c1cc(I)c(O)c(I)c1 [Example 11, (6-bromo-2-ethylbenzofuran-3-yl)(4-hydroxy-3,5-diiodophenyl)methanone] | 69.2% | – | – | – | 78.3% | – | –
11 | CCc1oc2c(C)cccc2c1C(=O)c1cc(I)c(O)c(I)c1 [Example 13, (2-ethyl-7-methylbenzofuran-3-yl)(4-hydroxy-3,5-diiodophenyl)methanone] | – | – | – | 49.1 µM | – | 65.2% | 72.5%
12 | CCc1oc2c(Cl)cccc2c1C(=O)c1cc(I)c(O)c(I)c1 [Example 14, (7-chloro-2-ethyl-3-yl)(4-hydroxy-3,5-diiodophenyl)methanone] | – | – | – | – | 90.6% | – | –
13 | CCc1oc2c(Br)cccc2c1C(=O)c1cc(I)c(O)c(I)c1 [Example 15, (7-bromo-2-ethylbenzofuran-3-yl)(4-hydroxy-3,5-diiodophenyl)methanone] | – | – | – | 48.3 µM | – | – | 96.2%
14 | O=C(c1cc(Br)c(O)c(Br)c1)c1coc2ccccc12 [Example 16, benzofuran-3-yl(3,5-dibromo-4-hydroxyphenyl)methanone] | – | – | – | 31.4 µM | – | 64.3% | –
15 | Cc1oc2cc(Br)ccc2c1C(=O)c1cc(Br)c(O)c(Br)c1 [Example 17, (6-bromo-2-methylbenzofuran-3-yl)(3,5-dibromo-4-hydroxyphenyl)methanone] | 19.5% | 3.7 µM | 3.73 µM | – | – | – | –
16 | Cc1oc2ccc(Br)cc2c1C(=O)c1cc(Br)c(O)c(Br)c1 [Example 18, (5-bromo-2-methylbenzofuran-3-yl)(3,5-dibromo-4-hydroxyphenyl)methanone] | 75.2% | 4.67 µM | 3.01 µM | – | – | – | –
17 | CCc1ccc2oc(CC)c(C(=O)c3cc(Br)c(O)c(Br)c3)c2c1 [Example 20, (3,5-dibromo-4-hydroxyphenyl)(2,5-diethylbenzofuran-3-yl)methanone] | – | 4.02 µM | 2.1 µM | 49.2 µM | – | – | –
18 | CCc1oc2c(CC)cccc2c1C(=O)c1cc(Br)c(O)c(Br)c1 [Example 21, (3,5-dibromo-4-hydroxyphenyl)(2,7-diethylbenzofuran-3-yl)methanone] | – | 3.07 µM | 2.8 µM | 5.52 µM | – | – | –
19 | CCc1oc2cccc(C)c2c1C(=O)c1cc(Br)c(O)c(Br)c1 [Example 23, (3,5-dibromo-4-hydroxyphenyl)(2-ethyl-4-methylbenzofuran-3-yl)methanone] | – | 3.39 µM | – | 71 µM | – | – | –
20 | CCc1oc2cccc(F)c2c1C(=O)c1cc(Br)c(O)c(Br)c1 [Example 24, (3,5-dibromo-4-hydroxyphenyl)(2-ethyl-4-fluorobenzofuran-3-yl)methanone] | – | 3.6 µM | – | 104 µM | – | – | –
